Reference: US10681909B2, “Herbicidal triazoles” (FMC Corporation, priority 2014, dated 2020)

What was measured:
pigweed [1] = assay: Test D preemergence; type: in vivo, Amaranthus retroflexus; settings: scale 0 to 100
Text: (§1) Seeds of plant species selected from bluegrass (annual bluegrass, Poa annua), blackgrass (Alopecurus myosuroides), canarygrass (Phalaris minor), chickweed (common chickweed, Stellaria media), galium (catchweed bedstraw, Galium aparine), bromegrass, down (downy bromegrass, Bromus tectorum), Russian thistle (Salsola kali), field poppy (Papaver rhoeas), field violet (Viola arvensis), foxtail, green (green foxtail, Setaria viridis), deadnettle (henbit deadnettle, Lamium amplexicaule), ryegrass, Ital. (Italian ryegrass, Lolium multiflorum), kochia (Kochia scoparia), lambsquarters (Chenopodium album), oilseed rape (Brassica napus), pigweed (Amaranthus retroflexus), chamomile (scentless chamomile, Matricaria inodora), speedwell (bird's-eye speedwell, Veronica persica), barley, spring (spring barley, Hordeum vulgare), wheat, spring (spring wheat, Triticum aestivum), buckwheat, wild (wild buckwheat, Polygonum convolvulus), wild mustard (Sinapis arvensis), oat, wild (wild oat, Avena fatua), radish, wild (wild radish, Raphanus raphanistrum), […]), barley, winter (winter barley, Hordeum vulgare), and wheat, winter (winter wheat, Triticum aestivum) were planted into a silt loam soil and treated preemergence with test chemicals formulated in a non-phytotoxic solvent mixture which included a surfactant. At the same time, these species were planted in pots containing Sunshine Redi-Earth® planting medium comprising spaghnum peat moss, vermiculite, starter nutrients and dolomitic limestone and treated with postemergence applications of the test chemicals formulated in the same manner. Plants ranged in height from 2 to 18 cm (1- to 4-leaf stage). Treated plants and controls were maintained in a controlled growth environment for 14 to 21 d after which time all species were compared to controls and visually evaluated. […] A dash (-) response means no test result.

blackgrass = assay: Test D preemergence; type: in vivo, Alopecurus myosuroides; settings: scale 0 to 100
Text: as §1

bluegrass = assay: Test D postemergence; type: in vivo, Poa annua; settings: scale 0 to 100
Text: as §1

radish, wild = assay: Test D postemergence; type: in vivo, Raphanus raphanistrum; settings: scale 0 to 100
Text: as §1

johnsongrass = assay: Test C preemergence; type: in vivo, Sorghum halepense; settings: for Plant response rating (scale of 0 to 100 where 0 is no effect and 100 is complete control): Johnsongrass, preemergence; for Johnsongrass plant response rating (0 to 100): Preemergence, visual rating after 13 to 15 d
Text: (§2) Seeds of plant species selected from blackgrass (Alopecurus myosuroides), ryegrass, Italian (Italian ryegrass, Lolium multiflorum), wheat (winter wheat, Triticum aestivum), galium (catchweed bedstraw, Galium aparine), corn (Zea mays), crabgrass, large (large crabgrass, Digitaria sanguinalis), foxtail, giant, (giant foxtail, Setaria faberii), johnsongrass (Sorghum halepense), lambsquarters (Chenopodium album), morningglory (Ipomoea coccinea), nutsedge, yellow (yellow nutsedge, Cyperus esculentus), pigweed (Amaranthus retroflexus), ragweed (common ragweed, Ambrosia elatior), soybean (Glycine max), barnyardgrass (Echinochloa crus-galli), oilseed rape (Brassica napus), waterhemp (common waterhemp, Amaranthus rudis), and velvetleaf (Abutilon theophrasti) were planted into a blend of loam soil and sand and treated preemergence with test chemicals formulated in a non-phytotoxic solvent mixture which included a surfactant. At the same time, plants selected from these crop and weed species and also chickweed (common chickweed, Stellaria media), oat, wild (wild oat, Avena fatua), and kochia (Kochia scoparia), were planted in pots containing Sunshine Redi-Earth® planting medium comprising spaghnum peat moss, vermiculite, starter nutrients and dolomitic limestone and treated with postemergence applications of test chemicals formulated in the same manner. Plants ranged in height from 2 to 18 cm (1- to 4-leaf stage) for postemergence treatments. […] A dash (-) response means no test result.

lambsquarters = assay: Test D postemergence; type: in vivo, Chenopodium album; settings: scale 0 to 100
Text: as §1

kochia = assay: Test D preemergence; type: in vivo, Kochia scoparia; settings: scale 0 to 100
Text: as §1

pigweed [2] = assay: Test D postemergence; type: in vivo, Amaranthus retroflexus; settings: scale 0 to 100
Text: as §1

chickweed = assay: Test D preemergence; type: in vivo, Stellaria media; settings: scale 0 to 100
Text: as §1

oat, wild = assay: Test D postemergence; type: in vivo, Avena fatua; settings: scale 0 to 100
Text: as §1

ragweed = assay: Test C preemergence; type: in vivo, Ambrosia elatior; settings: for Ragweed plant response rating (0 to 100): Preemergence, visual rating after 13 to 15 d; for Plant response rating (scale of 0 to 100 where 0 is no effect and 100 is complete control): Ragweed, preemergence
Text: as §2

CCOc1nc(-c2ccc(F)cc2)nn1Cc1ccnc(C(F)(F)F)c1 [Compound 8, 4-[[5-ethoxy-3-(4-fluorophenyl)-1H-1,2,4-triazol-1-yl]methyl]-2-(trifluoromethyl)pyridine]
Plant response rating: Pigweed (pigweed [1]; 62 g ai/ha): 100 | Plant response rating: Pigweed (pigweed [1]; 125 g ai/ha): 100 | Plant response rating: Pigweed (pigweed [1]; 250 g ai/ha): 100 | Plant response rating: Blackgrass (blackgrass; 31 g ai/ha): 65 | Plant response rating: Blackgrass (blackgrass; 62 g ai/ha): 70 | Plant response rating: Blackgrass (blackgrass; 125 g ai/ha): 100 | Plant response rating: Blackgrass (blackgrass; 250 g ai/ha): 100 | Plant response rating: Bluegrass (bluegrass; 31 g ai/ha): 55 | Plant response rating: Bluegrass (bluegrass; 62 g ai/ha): 65 | Plant response rating: Bluegrass (bluegrass; 125 g ai/ha): 75 | Plant response rating: Bluegrass (bluegrass; 250 g ai/ha): 75 | Plant response rating: Radish, Wild (radish, wild; 31 g ai/ha): 80 | Plant response rating: Radish, Wild (radish, wild; 62 g ai/ha): 100 | Plant response rating: Radish, Wild (radish, wild; 125 g ai/ha): 100 | Plant response rating: Radish, Wild (radish, wild; 250 g ai/ha): 100 | Plant response rating (scale of 0 to 100 where 0 is no effect and 100 is complete control) (johnsongrass; 125 g ai/ha): 98 | Plant response rating (scale of 0 to 100 where 0 is no effect and 100 is complete control) (johnsongrass; 250 g ai/ha): 100 | Johnsongrass plant response rating (0 to 100) (johnsongrass; 31 g ai/ha): 85 | Johnsongrass plant response rating (0 to 100) (johnsongrass; 62 g ai/ha): 98 | Plant response rating: Lambsquarters (lambsquarters; 31 g ai/ha): 95 | Plant response rating: Lambsquarters (lambsquarters; 62 g ai/ha): 95 | Plant response rating: Lambsquarters (lambsquarters; 125 g ai/ha): 95 | Plant response rating: Lambsquarters (lambsquarters; 250 g ai/ha): 90 | Plant response rating: Kochia (kochia; 62 g ai/ha): 100 | Plant response rating: Kochia (kochia; 125 g ai/ha): 100 | Plant response rating: Kochia (kochia; 250 g ai/ha): 100 | Plant response rating: Pigweed (pigweed [2]; 31 g ai/ha): 95 | Plant response rating: Pigweed (pigweed [2]; 62 g ai/ha): 95 | Plant response rating: Pigweed (pigweed [2]; 125 g ai/ha): 100 | Plant response rating: Pigweed (pigweed [2]; 250 g ai/ha): 95 | Plant response rating: Chickweed (chickweed; 31 g ai/ha): 100 | Plant response rating: Chickweed (chickweed; 62 g ai/ha): 100 | Plant response rating: Chickweed (chickweed; 125 g ai/ha): 100 | Plant response rating: Chickweed (chickweed; 250 g ai/ha): 100 | Plant response rating: Oat, Wild (oat, wild; 31 g ai/ha): 35 | Plant response rating: Oat, Wild (oat, wild; 62 g ai/ha): 45 | Plant response rating: Oat, Wild (oat, wild; 125 g ai/ha): 45 | Plant response rating: Oat, Wild (oat, wild; 250 g ai/ha): 55 | Ragweed plant response rating (0 to 100) (ragweed; 31 g ai/ha): 75 | Ragweed plant response rating (0 to 100) (ragweed; 62 g ai/ha): 85 | Plant response rating (scale of 0 to 100 where 0 is no effect and 100 is complete control) (ragweed; 125 g ai/ha): 90 | Plant response rating (scale of 0 to 100 where 0 is no effect and 100 is complete control) (ragweed; 250 g ai/ha): 90
